{"source": "patent US20240392231A1", "about": "“BACTERIOLYSIS METHOD AND BACTERIA DETECTION METHOD” (ASAHI KASEI KABUSHIKI KAISHA, priority 2021, published 2024)", "key": {"[1]": {"tested_on": "Escherichia coli (EC)", "test": "Bacteriolysis and immunochromatographic detection, test line intensity by image processing", "assay_type": "cell-based", "description": "(§1) Escherichia coli (EC) was selected as the Gram-negative bacteria and Staphylococcus aureus (SA) as the Gram-positive bacteria, and each was dissolved in saline to prepare a solution with a concentration of 1e5 cfu/ml. Normal saline was also used as the bacteria-free solution.\n(§2) 0.1M Tris-HCl (pH 7.4) buffer was mixed with 2.0 μg/ml of lysostaphin enzyme (the final concentration after mixing with the bacterial solution for evaluation (sample) was 1.0 μg/ml) and 0.2 mass % Tween20 for immunochromatographic development and used as a mother solution to prepare various reaction solutions with DDAO concentrations of from 0 to 0.5 mass % (the final concentrations after mixing with the bacterial solution for evaluation (sample) were 0 to 0.25 mass %) or benzalkonium chloride concentrations of 0 to 0.5 mass % (the final concentrations after mixing with the bacterial solution for evaluation (sample) were 0 to 0.25 mass %).\n(§3) Bacterial lysis and detection performance by antigen-antibody reaction were evaluated by inserting the immunochromatographic test strip prepared in Example 1 into a 1:1 mixture of the bacterial solution for evaluation and the various reaction solutions described above. The evaluation was made by photographing the test line area with a camera and quantifying the degree of redness of the test line area due to gold colloids via image processing (from the RGB values, the G value was used as indicating the red absorption. This is indicated as “test line intensity” in the graphs below). A higher test line intensity indicates a higher degree of redness, and a test line intensity of 10 or higher is considered visually positive."}, "[2]": {"tested_on": "Staphylococcus aureus (SA)", "test": "Bacteriolysis and immunochromatographic detection, test line intensity by image processing", "assay_type": "cell-based", "description": "as §1, §2, §3\nTo see the effect of lysostaphin, Staphylococcus aureus (SA) was dissolved in saline to prepare a solution with a concentration of 1e6 cfu/ml. Normal saline was also used as the bacteria-free solution.\n0.1M Tris-HCl (pH 7.4) buffer was mixed with DDAO at a concentration 0.15 mass % (the final concentration after mixing with the bacterial solution for evaluation (sample) was 0.075 mass %) or benzalkonium chloride at a concentration of 0.05 mass % (the final concentration after mixing with the bacterial solution for evaluation (sample) was 0.025 mass %) as well as 0.2 mass % of Tween20 for immunochromatographic development and used as a mother solution to prepare various reaction solutions with lysostaphin enzyme concentrations of 0 to 50 μg/ml (the final concentration after mixing with the bacterial solution for evaluation (sample) were 0 to 25 μg/ml).\nBacterial lysis and detection performance by antigen-antibody reaction (test line intensity) were evaluated by inserting the immunochromatographic test strip prepared in Example 1 into a 1:1 mixture of the bacterial solution for evaluation and the various reaction solutions described above."}}}
{"compound": "CCCCCCCCCCCC[N+](C)(C)[O-]", "note": "[DDAO, N,N-dimethyldodecylamine N-oxide]", "values": [{"measurement": "test line intensity EC", "setting": "[1]; higher final concentrations of DDAO vs absence of DDAO, lysostaphin 1.0 μg/ml, 1e5 cfu/ml, FIG. 2", "value": "higher test line intensities"}, {"measurement": "test line intensity SA", "setting": "[2]; final DDAO 0 to 0.05 mass %, lysostaphin 1.0 μg/ml, 1e5 cfu/ml, FIG. 2", "value": "increased"}, {"measurement": "test line intensity SA", "setting": "[2]; final DDAO above 0.1 mass %, lysostaphin 1.0 μg/ml, 1e5 cfu/ml, FIG. 2", "value": "decreased"}, {"measurement": "test line intensity SA", "setting": "[2]; final DDAO between 0.05 and 0.1 mass %, lysostaphin 1.0 μg/ml, 1e5 cfu/ml, FIG. 2", "value": "remained almost constant"}]}
{"compound": "benzalkonium chloride", "values": [{"measurement": "test line intensity EC", "setting": "[1]; final benzalkonium chloride exceeding 0.075 mass %, FIG. 3", "value": "decrease in test line intensity"}, {"measurement": "bacteriolysis efficiency and test line intensity EC", "setting": "[1]; final benzalkonium chloride up to 0.075 mass % vs none, lysostaphin 1.0 μg/ml, 1e5 cfu/ml, FIG. 3", "value": "higher bacteriolysis efficiency and test line intensity"}, {"measurement": "test line intensity SA", "setting": "[2]; final benzalkonium chloride 0 to 0.065 mass %, lysostaphin 1.0 μg/ml, 1e5 cfu/ml, FIG. 3", "value": "increased"}, {"measurement": "test line intensity SA", "setting": "[2]; final benzalkonium chloride exceeding 0.07 mass %, FIG. 3", "value": "decreased"}]}
{"compound": "lysostaphin: bacteriolysis enzyme, protein hydrolysis enzyme", "values": [{"measurement": "test line intensity SA", "setting": "[2]; lysostaphin final concentration exceeding 0.01 μg/ml, DDAO 0.075 mass %, 1e6 cfu/ml, FIG. 4", "value": "high test line intensity"}, {"measurement": "test line intensity SA", "setting": "[2]; lysostaphin final concentration exceeding 0.01 μg/ml, benzalkonium chloride 0.025 mass %, 1e6 cfu/ml, FIG. 5", "value": "high test line intensity"}]}
